This is an account of results in PMC5418314, “First-in-human phase I study of SOR-C13, a TRPV6 calcium channel inhibitor, in patients with advanced solid tumors” (Investigational New Drugs, 2017).

One test has as its system ovarian cancer xenograft. Nature of the test: xenograft model of ovarian cancer, tumor inhibition. In kind it is in vivo.
A further test deals with breast cancer xenograft. Put plainly: xenograft model of breast cancer, tumor inhibition. The format is in vivo.
The subject of test [1] is advanced solid tumors of epithelial origin. Nature of the test: Phase I anti-tumor activity (RECIST 1.1). The format is in vivo, human. How it is done:
(§1) Anti-tumor activity was evaluated by radiologic assessment of tumor size according to the New Response Evaluation Criteria in Solid Tumors (RECIST), Revised Guideline Version 1.1 [20] and changes in tumor-specific biomarker levels. The baseline radiologic assessment was performed ≤30 days prior to the first SOR-C13 dose. Tumor response was assessed after two cycles of treatment (between Days 15–21 of Cycle 2). For patients receiving additional cycles, tumor response was assessed after every 2 additional cycles, or earlier at the investigator’s discretion or as required by standard of care at the site.

Another test deals with CA 19–9. Put plainly: CA 19–9 tumor biomarker levels in pancreatic cancer patients. In kind it is in vivo, human. The protocol: as §1
For pharmacodynamic information changes of the plasma biomarkers ‘cleaved cytokeratin 18’, (ccK18) and TRPV6 mRNA levels, in response to treatment, were evaluated. Blood samples for the assessment of ccK18, TRPV6 mRNA or other tumor-specific biomarkers were collected within 24 h prior to the first infusion of SOR-C13, on Day 1 of Cycle 2, once between Days 15–21 of Cycle 2, during additional cycles, and at the Month 1 follow-up. We set a low basal level of ccK18 as 250 U/L as a cut-off point representing the 95th percentile median of healthy volunteers (Peviva M30 Apoptosense ELISA assay product literature).

The next test deals with TRPV6. Conditions: read-out: IC50, inhibition of TRPV6; cited from earlier work. The source says:
SOR-C13 is a short segment (13-mer) from the C-terminus of a paralytic peptide soricidin (accession number P0C2P6) discovered in the saliva of the Northern Short-tailed shrew (Blarina brevicauda), abundant in eastern North America. While not paralytic themselves, C-series peptides blocked calcium uptake by ovarian cancer cells in in vitro studies. […] TRPV6 is predominantly found in non-excitable tissues wi ...

pIC50: −log10 of the molar value. Ends that are not written are not given here.

Usually pIC50 stands for −log10 of the IC50, conventionally taken in molar units. Take KEFLHPSKVDLPR [SOR-C13]: the inhibition of tumors entry with ovarian cancer xenograft and with breast cancer xenograft was “effective” throughout. Also, the “patients with stable disease after two cycles” value in test [1] (1.375 mg/kg, 90-min infusion) is “two out of the three patients”. Also, the “patients with stable disease” value in test [1] (12 of 22 evaluable patients, after two cycles, RECIST 1.1) came to 54.5%. Moreover, the “patients with stable disease after 2 cycles” value in test [1] (ovarian cancer (OVca) patients) is listed as “two of the four”. In addition, the “duration of stable disease” value is on record as “four cycles” in test [1] (pancreatic cancer patient, 2.75 mg/kg, 90-min infusions) and “over 10 cycles” in test [1] (pancreatic cancer patient, 6.2 mg/kg, 90-min infusions). For the same sequence, in test [1] (pancreatic cancer patient, 6.2 mg/kg, 90-min infusions, after 4 cycles), the “reduction from baseline in the sum of tumor diameters” value is recorded as 27%. In addition, the “duration of stable disease (cycles received)” value in test [1] (patient with adenoid cystic carcinoma of the tongue, 4.13 mg/kg) came to 18 cycles. For the same sequence, the “decrease in CA 19–9” value in the test with CA 19–9 (pancreatic cancer patient treated at 6.25 mg/kg, after cycle 2) amounted to 29%; in the test with CA 19–9 (pancreatic cancer patient, 6.2 mg/kg, after cycle 4) it was 55%. Besides, the negative logarithm of the IC50 (pIC50) in the test with TRPV6 was 7.85.
